Source: ChEMBL document CHEMBL1201862, “PubChem BioAssay data set” (2004)
Calls of active or inactive are those of the source.

Key:
[1] = Late-stage results from the probe development effort to identify antagonists of arginine vasopressin receptor 1a (AVPR1a): fluorescence-based cell-based dose response AVPR1a inhibition assay.; format: functional
Vasopressin V1b receptor = Vasopressin V1b receptor (Homo sapiens, UniProt P47901); test: Late-stage results from the probe development effort to identify antagonists of arginine vasopressin receptor 1a (AVPR1a): fluorescence-based cell-based dose response AVPR1b inhibition counterscreen assay.; format: functional
Vasopressin V2 receptor = Vasopressin V2 receptor (Homo sapiens, UniProt P30518); test: Late-stage results from the probe development effort to identify antagonists of arginine vasopressin receptor 1a (AVPR1a): fluorescence-based cell-based dose response AVPR2 inhibition counterscreen assay.; format: functional
[2] = Late-stage results from the probe development effort to identify antagonists of arginine vasopressin receptor 1a (AVPR1a): fluorescence-based cell-based dose response OXTR inhibition counterscreen assay.; format: functional
[3] = HEK293T cell cytotoxicity, dose response, cytotoxicity control, CellTiter-Glo luminescence, dry powder, set 2 (AID 720595); format: functional, cell-based; conditions: HEK293
Streptococcus = test: Group A Streptococcus viability loss, dose response, counter-screen for streptokinase expression inhibitor project, luminescence, BacTiterGlo (AID 1915); format: functional, organism-based;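 further: potency for reduction of bacterial viability or growth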
Nonstructural protein 1 = Nonstructural protein 1 (Influenza A virus, UniProt Q194T2); format: functional, Influenza A virus (A/California/07/2009(H1N1))
Streptokinase A = target: T1, Streptokinase A (Streptococcus pyogenes serotype M1, UniProt P10520); test: S. pyogenes streptokinase expression inhibitors, potency, dose response, plasminogen activation absorbance, OD405 (AID 1914); format: functional, Streptococcus pyogenes M1 GAS;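 further: secreted streptokinase activity via plasminogen activation per viability signal from cell pellet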
T1 sequence (P10520 whole entry): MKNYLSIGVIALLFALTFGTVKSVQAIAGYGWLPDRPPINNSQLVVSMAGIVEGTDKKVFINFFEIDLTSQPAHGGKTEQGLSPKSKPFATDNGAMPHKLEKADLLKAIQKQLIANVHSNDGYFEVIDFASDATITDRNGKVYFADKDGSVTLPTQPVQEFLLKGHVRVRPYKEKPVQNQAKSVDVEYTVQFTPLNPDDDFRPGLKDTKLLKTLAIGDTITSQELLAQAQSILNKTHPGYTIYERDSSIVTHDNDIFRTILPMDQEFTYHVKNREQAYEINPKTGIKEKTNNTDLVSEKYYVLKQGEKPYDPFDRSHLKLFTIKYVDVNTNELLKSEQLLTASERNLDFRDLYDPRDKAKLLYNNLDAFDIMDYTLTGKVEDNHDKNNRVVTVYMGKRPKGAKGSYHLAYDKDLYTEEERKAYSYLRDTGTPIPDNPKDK

[4] = tested on: Streptococcus sp. 'group A'; test: growth inhibition of control SK(-) GAS strain, dose response, counter-screen for streptokinase expression inhibitor project, luminescence, kanamycin, BacTiterGlo, confirmation (AID 1900); format: functional, organism-based
[5] = HeLa cell cytotoxicity, dose response, cytotoxicity control, CellTiter-Glo luminescence, dry powder, set 2 (AID 720593); format: functional, cell-based
Vero = test: host cell cytotoxicity of antiviral hits, dose response, cytotoxicity control for West Nile virus antiviral project, secondary assay (AID 1650); format: functional; conditions: Chlorocebus sabaeus
NADPH oxidase 1 [6] = target: T2, NADPH oxidase 1 (Homo sapiens, UniProt Q9Y5S8); test: NOX1 inhibitors, concentration-response, dose response, cell-based, luminescence, cherry picks 2 (AID 434997); format: functional
NADPH oxidase 1 [7] = target: T2, NADPH oxidase 1; test: Late stage results from the probe development effort to identify inhibitors of NOX1: HEK/293 IC50. [Related pubchem assays: 1796 (Summary AID (NOX1)), 2752 (Primary screen (NOX1 inhibitors, synthesized analogs set 2)), 2664 (Primary screen (NOX1 inhibitors, synthesized analogs)), 1792 (Primary Screen (NOX1)), 2545 (Confirmation screen (NOX1 …; format: functional
Ephrin type-A receptor 4 = Ephrin type-A receptor 4 (Mus musculus, UniProt Q03137); test: inhibitors of EphA4 binding to KYL peptide, primary screen, biochemical, colorimetric, mouse EphA4 (AID 689); format: functional
[8] = HCT116 cell viability decrease, GSK3B pretreatment – CellTiter-Glo, IC50, dose response (AID 1117339); format: functional; conditions: HCT-116
[9] = CellTiter-Glo luminescent dose response of DLD-1 viability loss (AID 1117352); format: functional
[10] = cytotoxicity toward Colo320 cells – cell-based, CellTiter-Glo luminescence, IC50, dose response (AID 1117334); format: functional; conditions: COLO 320
[11] = RKO cell viability reduction, dose response, CellTiter-Glo luminescence (AID 1117322); format: functional
[12] = cytotoxicity toward HT-29 cells – cell-based, CellTiter-Glo luminescence, IC50, dose response (AID 1117330); format: functional
[13] = Concentration-dependent survival of SW480 colon cancer line, luminescence detection with CellTiter-Glo, half-maximal inhibitory concentration (AID 1117338); format: functional
[14] = SNU-C1 cell viability reduction, dose response, CellTiter-Glo luminescence (AID 1117323); format: functional, cell-based
[15] = cytotoxicity toward HCT116 cells – cell-based, CellTiter-Glo luminescence, IC50, dose response (AID 1117332); format: functional; conditions: HCT-116
[16] = P. falciparum Dd2 growth inhibitors, dose response, SYBR Green, cherry-picked samples (AID 1159567); format: functional, cell-based
[17] = HepG2 cell cytotoxicity, dose response, cytotoxicity control, cherry-picked samples (AID 1159577); format: functional, cell-based
[18] = Artemis endonuclease inhibitor potency, dose response, biochemical, fluorescence intensity (AID 720701); format: functional;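 further: Artemis endonuclease enzyme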
[19] = inhibitors of SNCA 5'UTR-driven reporter translation, confirmation, H4 neuroglioma cells, luminescence (AID 1988); format: functional, cell-based
[20] = Luminescence Cell-Based Dose Response HTS to Identify Inhibitors of 5'UTR Stem-Loop Driven Prion Protein mRNA Translation in H4 Neuroglioblastoma Cells. [Related pubchem assays: 1827 (Project Summary), 1813 (Primary HTS)]; format: functional
[21] = inhibitors of firefly luciferase expression or activity, dose response, H4 neuroglioma cells, luminescence (AID 1990); format: functional, cell-based
[22] = target: G-protein coupled receptor 183 (Homo sapiens, UniProt P32249); test: SAR confirmation of small molecule antagonists of the EBI2 receptor via a luminescent beta-arrestin assa.; format: functional
[23] = target: Peroxisome proliferator-activated receptor gamma/Nuclear receptor corepressor 2 (Homo sapiens, UniProt P37231+Q9Y618); test: Counterscreen for NR2E3 inverse agonists: TR-FRET-based biochemical high throughput dose response assay to identify inverse agonists of the interaction between peroxisome proliferator-activated receptor gamma (PPARg) and nuclear receptor co-repressor 2 (NCOR2).; format: functional
Estrogen receptor = target: T3, Estrogen receptor (Homo sapiens, UniProt P03372);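 further: potency for inhibiting coactivator peptide recruitment to the receptor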
T3 sequence (P03372 whole entry): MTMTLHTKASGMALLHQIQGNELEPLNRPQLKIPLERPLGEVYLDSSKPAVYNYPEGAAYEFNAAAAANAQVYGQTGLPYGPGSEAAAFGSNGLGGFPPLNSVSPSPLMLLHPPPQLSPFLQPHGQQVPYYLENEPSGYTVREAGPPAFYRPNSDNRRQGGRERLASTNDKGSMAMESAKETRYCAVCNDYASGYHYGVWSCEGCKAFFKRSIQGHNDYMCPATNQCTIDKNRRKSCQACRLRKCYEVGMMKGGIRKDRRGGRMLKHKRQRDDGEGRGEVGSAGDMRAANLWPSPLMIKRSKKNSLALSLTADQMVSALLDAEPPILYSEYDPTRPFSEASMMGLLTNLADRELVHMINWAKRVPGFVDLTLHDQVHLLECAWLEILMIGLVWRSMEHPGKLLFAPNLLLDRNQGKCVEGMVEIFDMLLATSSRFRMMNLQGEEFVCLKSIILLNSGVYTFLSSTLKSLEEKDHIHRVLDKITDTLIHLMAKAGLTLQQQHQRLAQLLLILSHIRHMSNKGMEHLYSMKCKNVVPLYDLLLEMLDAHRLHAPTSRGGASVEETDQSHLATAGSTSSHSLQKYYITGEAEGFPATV

[24] = target: Photoreceptor-specific nuclear receptor (Homo sapiens, UniProt Q9Y5X4); test: NR2E3 inverse agonists, dose response, biochemical, TR-FRET (AID 463256); format: functional
[25] = target: Bifunctional protein GlmU (Mycobacterium tuberculosis, UniProt P9WMN3); test: Inhibitors of Mycobacterial Glucosamine-1-phosphate acetyl transferase (GlmU). Secondary screen.; set-up: species or system Mycobacterium tuberculosis H37Rv
[26] = target: Dual specificity tyrosine-phosphorylation-regulated kinase 1A (Rattus norvegicus, UniProt Q63470); format: biochemical, Homo sapiens
[27] = target: T4, Heat shock factor protein 1 (Mus musculus, UniProt P38532); test: inhibition of MG132-induced HSE-luciferase signal, confirmation, cell-based, NIH3T3, luminescence, dose retest (AID 2382); format: functional;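 further: NIH3T3 fibroblasts with HSF1-driven luciferase reporter stressed by proteasome inhibitor MG132; luminescence from HSF1-driven luciferase expression after 8 hours of MG132 stress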
T4 sequence (P38532 whole entry): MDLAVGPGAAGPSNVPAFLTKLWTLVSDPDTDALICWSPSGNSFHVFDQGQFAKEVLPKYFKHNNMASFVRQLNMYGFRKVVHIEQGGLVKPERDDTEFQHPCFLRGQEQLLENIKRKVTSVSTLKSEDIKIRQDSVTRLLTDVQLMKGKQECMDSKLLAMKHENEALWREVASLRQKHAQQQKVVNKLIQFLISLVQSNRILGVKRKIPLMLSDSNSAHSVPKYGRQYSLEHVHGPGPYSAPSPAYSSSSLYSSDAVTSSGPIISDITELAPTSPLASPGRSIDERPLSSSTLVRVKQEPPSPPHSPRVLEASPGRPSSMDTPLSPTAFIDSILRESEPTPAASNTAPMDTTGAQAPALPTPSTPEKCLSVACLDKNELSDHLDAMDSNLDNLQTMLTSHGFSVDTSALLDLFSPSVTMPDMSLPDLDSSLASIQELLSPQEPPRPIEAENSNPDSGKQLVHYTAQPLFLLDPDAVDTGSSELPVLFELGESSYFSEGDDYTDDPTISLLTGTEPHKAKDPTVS

[28] = target: 5-hydroxytryptamine receptor 1A (Homo sapiens, UniProt P08908); format: functional
[29] = target: Heat shock protein HSP 90-alpha (Homo sapiens, UniProt P07900); test: Luminescence-based dose response biochemical high throughput screening assay for inhibitors of the Heat Shock Protein 90 (HSP90). [Related pubchem assays: 1831 (Summary AID.), 1846 (Confirmation screen.), 1789 (Primary screen.)]
[30] = A549 cell cytotoxicity, dose response, cytotoxicity control, 24 h, CellTiter-Glo luminescence, cherry-picks (AID 1053115); format: functional, cell-based; conditions: A549, 24 h
[31] = target: T5, Voltage-gated inwardly rectifying potassium channel KCNH2 (Homo sapiens, UniProt Q12809); test: concentration dependence of hERG rescue from dofetilide, dose response, manual patch clamp, HEK293 cells (AID 2638); format: ADME
[32] = target: T5, Voltage-gated inwardly rectifying potassium channel KCNH2; test: hERG protection from proarrhythmic block, potency, dose response, cell-based, thallium flux (AID 2121); format: ADME

T2 sequence (Q9Y5S8 whole entry): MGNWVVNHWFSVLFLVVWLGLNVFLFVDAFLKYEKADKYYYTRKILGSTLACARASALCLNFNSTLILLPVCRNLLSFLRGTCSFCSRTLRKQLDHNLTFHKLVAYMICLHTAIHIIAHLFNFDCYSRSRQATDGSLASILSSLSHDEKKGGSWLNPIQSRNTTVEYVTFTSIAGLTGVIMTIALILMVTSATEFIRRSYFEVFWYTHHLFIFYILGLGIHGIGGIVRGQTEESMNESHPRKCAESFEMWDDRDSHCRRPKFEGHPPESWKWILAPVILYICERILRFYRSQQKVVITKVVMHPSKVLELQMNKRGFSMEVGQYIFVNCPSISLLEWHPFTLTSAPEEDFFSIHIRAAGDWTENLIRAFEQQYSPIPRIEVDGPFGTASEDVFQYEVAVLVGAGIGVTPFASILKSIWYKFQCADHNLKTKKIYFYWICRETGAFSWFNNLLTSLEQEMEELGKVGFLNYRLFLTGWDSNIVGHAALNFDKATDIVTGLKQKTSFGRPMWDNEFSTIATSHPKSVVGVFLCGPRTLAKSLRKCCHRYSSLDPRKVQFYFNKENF
T5 sequence (Q12809 whole entry): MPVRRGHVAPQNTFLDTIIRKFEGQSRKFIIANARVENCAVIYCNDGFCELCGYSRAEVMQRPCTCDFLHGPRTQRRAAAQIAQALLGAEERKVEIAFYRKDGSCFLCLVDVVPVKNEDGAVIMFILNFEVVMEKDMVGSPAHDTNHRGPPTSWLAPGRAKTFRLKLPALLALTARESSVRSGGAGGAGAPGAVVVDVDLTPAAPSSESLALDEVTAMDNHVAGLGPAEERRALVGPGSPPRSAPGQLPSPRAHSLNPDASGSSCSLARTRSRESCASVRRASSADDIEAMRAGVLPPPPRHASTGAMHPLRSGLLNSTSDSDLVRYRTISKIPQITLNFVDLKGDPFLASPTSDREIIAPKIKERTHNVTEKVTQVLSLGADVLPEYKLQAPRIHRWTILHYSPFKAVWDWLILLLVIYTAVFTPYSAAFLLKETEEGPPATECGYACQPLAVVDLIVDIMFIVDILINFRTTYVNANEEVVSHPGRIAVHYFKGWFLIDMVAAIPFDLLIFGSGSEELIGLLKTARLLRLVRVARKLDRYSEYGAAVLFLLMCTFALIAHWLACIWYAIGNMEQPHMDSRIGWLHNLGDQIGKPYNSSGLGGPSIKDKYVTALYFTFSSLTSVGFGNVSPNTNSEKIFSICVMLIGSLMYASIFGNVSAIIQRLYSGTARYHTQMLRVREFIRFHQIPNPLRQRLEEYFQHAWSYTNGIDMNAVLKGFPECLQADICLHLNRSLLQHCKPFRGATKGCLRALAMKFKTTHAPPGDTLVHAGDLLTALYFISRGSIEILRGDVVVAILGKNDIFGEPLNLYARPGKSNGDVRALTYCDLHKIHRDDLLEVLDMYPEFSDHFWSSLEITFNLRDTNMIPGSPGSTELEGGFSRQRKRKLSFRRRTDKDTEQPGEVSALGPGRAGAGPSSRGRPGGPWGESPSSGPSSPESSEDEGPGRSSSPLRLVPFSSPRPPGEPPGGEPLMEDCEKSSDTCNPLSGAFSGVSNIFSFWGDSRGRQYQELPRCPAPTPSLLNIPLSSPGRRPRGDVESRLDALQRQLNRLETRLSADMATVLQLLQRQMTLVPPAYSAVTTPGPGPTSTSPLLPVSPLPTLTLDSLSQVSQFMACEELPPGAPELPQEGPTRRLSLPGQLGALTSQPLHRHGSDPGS
Photoreceptor-specific nuclear receptor, sequence (Q9Y5X4 whole entry): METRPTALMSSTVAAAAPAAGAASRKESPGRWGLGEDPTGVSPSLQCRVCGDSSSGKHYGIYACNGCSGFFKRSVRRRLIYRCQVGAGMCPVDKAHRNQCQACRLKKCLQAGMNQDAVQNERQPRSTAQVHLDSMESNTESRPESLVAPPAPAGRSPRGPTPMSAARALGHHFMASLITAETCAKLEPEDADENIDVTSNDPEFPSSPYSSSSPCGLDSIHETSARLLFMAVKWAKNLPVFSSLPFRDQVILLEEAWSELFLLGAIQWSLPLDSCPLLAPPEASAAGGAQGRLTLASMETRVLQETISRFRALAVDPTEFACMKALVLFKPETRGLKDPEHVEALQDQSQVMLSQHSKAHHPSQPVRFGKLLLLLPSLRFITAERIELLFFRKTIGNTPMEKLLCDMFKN
G-protein coupled receptor 183, sequence (P32249 whole entry): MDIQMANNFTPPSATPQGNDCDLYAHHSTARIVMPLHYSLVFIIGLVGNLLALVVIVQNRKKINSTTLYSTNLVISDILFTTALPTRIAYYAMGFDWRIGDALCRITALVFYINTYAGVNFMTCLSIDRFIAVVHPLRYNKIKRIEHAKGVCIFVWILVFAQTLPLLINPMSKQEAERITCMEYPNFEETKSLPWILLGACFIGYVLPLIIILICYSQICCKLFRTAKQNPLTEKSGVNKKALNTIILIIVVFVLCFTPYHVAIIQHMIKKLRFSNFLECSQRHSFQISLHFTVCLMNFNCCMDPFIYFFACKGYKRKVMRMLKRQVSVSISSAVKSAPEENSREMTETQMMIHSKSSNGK
Nonstructural protein 1, sequence (Q194T2 whole entry): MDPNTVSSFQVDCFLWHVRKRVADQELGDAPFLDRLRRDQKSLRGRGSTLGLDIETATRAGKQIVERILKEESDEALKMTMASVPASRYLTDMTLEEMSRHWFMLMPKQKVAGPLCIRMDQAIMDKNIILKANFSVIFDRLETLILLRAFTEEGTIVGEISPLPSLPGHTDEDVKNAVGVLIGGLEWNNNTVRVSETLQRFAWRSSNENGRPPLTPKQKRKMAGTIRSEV
Ephrin type-A receptor 4, sequence (Q03137 whole entry): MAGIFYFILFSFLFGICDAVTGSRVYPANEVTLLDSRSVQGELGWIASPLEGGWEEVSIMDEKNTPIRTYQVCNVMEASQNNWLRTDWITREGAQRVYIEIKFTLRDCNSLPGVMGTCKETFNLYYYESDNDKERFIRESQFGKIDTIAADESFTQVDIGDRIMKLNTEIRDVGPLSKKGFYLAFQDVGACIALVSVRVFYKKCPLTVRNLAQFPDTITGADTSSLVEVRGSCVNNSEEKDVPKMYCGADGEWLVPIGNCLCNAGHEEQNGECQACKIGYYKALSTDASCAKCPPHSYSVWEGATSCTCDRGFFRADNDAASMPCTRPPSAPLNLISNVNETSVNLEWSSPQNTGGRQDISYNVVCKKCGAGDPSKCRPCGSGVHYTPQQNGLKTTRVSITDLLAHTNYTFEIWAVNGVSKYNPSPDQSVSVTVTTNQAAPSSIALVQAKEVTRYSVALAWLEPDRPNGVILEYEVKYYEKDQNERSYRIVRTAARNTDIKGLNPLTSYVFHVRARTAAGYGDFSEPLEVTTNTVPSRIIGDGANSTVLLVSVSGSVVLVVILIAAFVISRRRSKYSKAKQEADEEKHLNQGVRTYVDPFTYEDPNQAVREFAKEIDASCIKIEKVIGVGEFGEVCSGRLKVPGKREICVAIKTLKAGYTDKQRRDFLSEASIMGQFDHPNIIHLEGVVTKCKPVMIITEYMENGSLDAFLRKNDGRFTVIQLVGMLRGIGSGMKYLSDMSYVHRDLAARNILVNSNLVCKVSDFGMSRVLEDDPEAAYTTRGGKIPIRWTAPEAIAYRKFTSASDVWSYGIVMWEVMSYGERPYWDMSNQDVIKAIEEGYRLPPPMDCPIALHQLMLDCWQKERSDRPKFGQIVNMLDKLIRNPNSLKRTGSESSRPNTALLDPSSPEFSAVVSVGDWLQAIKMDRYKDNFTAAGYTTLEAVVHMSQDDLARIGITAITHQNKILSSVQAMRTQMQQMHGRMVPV
5-hydroxytryptamine receptor 1A, sequence (P08908 whole entry): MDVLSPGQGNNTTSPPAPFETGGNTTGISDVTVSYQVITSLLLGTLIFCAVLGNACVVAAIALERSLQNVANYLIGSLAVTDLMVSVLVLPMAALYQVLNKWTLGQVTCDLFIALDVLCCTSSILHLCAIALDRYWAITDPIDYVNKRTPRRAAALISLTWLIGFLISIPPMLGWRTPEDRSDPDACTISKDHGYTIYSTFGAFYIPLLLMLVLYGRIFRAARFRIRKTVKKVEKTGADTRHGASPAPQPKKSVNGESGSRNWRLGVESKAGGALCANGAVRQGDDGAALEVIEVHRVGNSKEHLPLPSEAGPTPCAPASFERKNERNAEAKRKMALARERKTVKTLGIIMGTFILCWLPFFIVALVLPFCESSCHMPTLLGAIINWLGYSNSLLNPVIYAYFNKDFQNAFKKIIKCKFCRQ
Bifunctional protein GlmU, sequence (P9WMN3 whole entry): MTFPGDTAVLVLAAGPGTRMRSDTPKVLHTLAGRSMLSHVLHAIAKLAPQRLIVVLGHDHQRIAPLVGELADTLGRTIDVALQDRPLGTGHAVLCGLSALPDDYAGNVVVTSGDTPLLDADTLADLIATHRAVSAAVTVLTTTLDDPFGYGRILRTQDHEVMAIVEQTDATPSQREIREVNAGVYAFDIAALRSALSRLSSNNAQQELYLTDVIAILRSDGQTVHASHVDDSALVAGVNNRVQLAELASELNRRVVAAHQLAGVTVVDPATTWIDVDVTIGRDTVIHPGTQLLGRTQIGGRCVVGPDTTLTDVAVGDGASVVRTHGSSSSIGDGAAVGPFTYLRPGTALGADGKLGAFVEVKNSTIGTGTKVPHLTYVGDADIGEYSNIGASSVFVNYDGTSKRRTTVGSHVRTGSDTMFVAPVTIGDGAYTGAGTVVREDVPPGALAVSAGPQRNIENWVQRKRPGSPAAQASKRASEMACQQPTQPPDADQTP
Vasopressin V2 receptor, sequence (P30518 whole entry): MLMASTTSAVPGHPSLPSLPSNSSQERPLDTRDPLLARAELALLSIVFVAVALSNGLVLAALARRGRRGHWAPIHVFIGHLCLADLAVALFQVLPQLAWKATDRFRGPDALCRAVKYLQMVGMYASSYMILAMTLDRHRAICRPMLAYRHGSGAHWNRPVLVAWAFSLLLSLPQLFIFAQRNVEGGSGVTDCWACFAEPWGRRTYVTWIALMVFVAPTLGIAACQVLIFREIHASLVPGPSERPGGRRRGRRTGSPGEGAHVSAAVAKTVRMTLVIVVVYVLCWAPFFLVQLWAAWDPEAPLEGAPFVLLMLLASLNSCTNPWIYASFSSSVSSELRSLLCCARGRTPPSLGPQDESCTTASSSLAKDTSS

Cc1ccnc(N2CCN(C(=O)N(CC3CC3)c3ccc(Cl)cc3)CC2)c1
IC50 [1]: 0.0158 µM (active) | IC50 (Vasopressin V1b receptor): > 50 µM (inactive) | IC50 (Vasopressin V2 receptor): > 50 µM (inactive) | IC50 [2]: > 50 µM (inactive)

Cc1ccc(C(=O)Nc2nc(-c3ccccn3)cs2)o1
AC50 [3]: 29.1 µM (active) | EC50 (Streptococcus): > 150 µM (not active) | IC50 (Nonstructural protein 1): 10.1 µM (active) | EC50 (Streptokinase A): > 150 µM (not active) | EC50 [4]: 17.9 µM (active) | AC50 [5]: > 52 µM (inactive)

Cn1cc([N+](=O)[O-])c(C(=O)Nc2ccn(Cc3c(F)c(F)cc(F)c3F)n2)n1
CC50 (Vero): 20.8 µM (active)

Cc1cc(Cl)ccc1NC(=S)NNC(=S)Nc1ccc(F)cc1
IC50 (NADPH oxidase 1 [6]): 0.67 µM (active) | IC50 (NADPH oxidase 1 [7]): 0.96 µM (active)

O=C1/C(=C\c2ccco2)SC(=S)N1Cc1ccccc1
IC50 (Ephrin type-A receptor 4): 3.21 µM (active)

CCCCCCCCCCCCCCCCCCOP(=O)([O-])OC1CC[N+](C)(C)CC1 [PERIFOSINE]
IC50 [8]: 5.79 µM (inactive) | IC50 [9]: > 20 µM (inactive) | IC50 [10]: 2.36 µM (active) | IC50 [11]: 2.1 µM (active) | IC50 [12]: 6.9 µM (inactive) | IC50 [13]: 0.852 µM (active) | IC50 [14]: > 20 µM (inactive) | IC50 [15]: 3.17 µM (active)

COc1ccc2c3c([nH]c2c1)[C@@H](CO)N(C(=O)Nc1ccc(F)cc1)CC31CN(Cc2ccccc2OC)C1
AC50 [16]: 3.7 µM (active) | AC50 [17]: 9.77 µM (active)

CSc1nnc2c3cc(C)ccc3n(Cc3ccccc3)c2n1
IC50 [18]: 19.8 µM (active) | EC50 [19]: > 120 µM (not active) | EC50 [20]: > 120 µM (not active) | EC50 [21]: > 120 µM (not active)

O=C(/C=C/c1ccccc1C(F)(F)F)N1CCN(S(=O)(=O)c2ccc(Br)cc2)CC1
IC50 [22]: 0.31 µM (active)

Fc1ccc(CNc2nc3ccccc3n3cnnc23)cc1
IC50 [23]: 1.42 µM (active) | IC50 (Estrogen receptor): > 50 µM (not active) | IC50 [24]: 2.69 µM (active)

CC(C)S(=O)(=O)C1=NSC2=NC(=O)/C(=C\c3ccc(-c4cccc(C(=O)O)c4)o3)C(=N)N21
IC50 [25]: 13.5 µM (active) | AC50 [26]: 8.1 µM (active)

COc1cc(CN2CCN(c3cccc(C)c3C)CC2)cc(OC)c1O
EC50 [27]: > 195 µM (not active) | EC50 [28]: > 50 µM (not active)

Cc1nc(CS(=O)(=O)c2ccc(Cl)cc2)sc1C(=O)O
IC50 [29]: 12.1 µM (not active)

O=C(Nc1ccc2c(c1)[C@@H]1C[C@@H](CC(=O)N3CCCCC3)O[C@@H](CO)[C@@H]1O2)Nc1ccccc1F
AC50 [30]: 47.8 µM (active)

O=C(O)c1cc(Cl)ccc1Nc1nc2cc(Cl)ccc2o1
EC50 [31]: 107 µM (not active) | EC50 [32]: 11.7 µM (active)
